Earlier results, collected in patent US11638429B2, “Hypochlorous acid disinfectant and its production method” (SUPER AQUA INTERNATIONAL CO., LTD., priority 2020, dated 2023).

Test system: coliform
Conditions: versus hypochlorite ion (CLO—); FIG. 2, U.S. EPA

OCl [hypochlorous acid (HCLO), hypochlorous acid]
sterilization of hypochlorous acid (HCLO) relative to hypochlorite ion (CLO—): 80 times
